Source: article PMC4839570, “Novel Anthra[1,2-c][1,2,5]Thiadiazole-6,11-Diones as Promising Anticancer Lead Compounds: Biological Evaluation, Characterization & Molecular Targets Determination” (PLoS ONE, 2016)
Like-named read-outs stand apart in the source and are kept apart here.

Experiments:
Type in all cases: cell-based
MDA-MB-231 = assay: JFCR-39 cytotoxicity screen
[1] = tested on: NCI 60 human cancer cell lines; assay: NCI-60 screen, means, ranges and selectivity over panels; conditions: for GI50: Homo sapiens
Description: Both NSC745885 and NSC757963 satisfied the pre-determined threshold inhibition criteria of the NCI-60 One-Dose Screening, so they were tested against the panels of 60 cancer cell lines of NCI (NCI-60) and 39 cancer cell lines of JFCR (JFCR-39), each cell line was tested at five small doses of our compounds. Results are expressed as the 50% growth inhibition concentration (GI50), the 50% lethal concentration (LC50) and the total growth inhibition (TGI), compared to the values of untreated control cells.
To characterize the selectivity of NSC745885 and NSC757963 further among the different types of cancer, we determined their selectivity ratios towards each cell line subpanel used in the cytotoxicity experiments. […] The promising activity of this compound is evident from the small mean GI50 values. […] The strongest activity was towards the leukemia subpanel and the least one was towards the colon cancer subpanel. […] The strongest activity was towards the melanoma subpanel and the least one was towards the colon cancer subpanel.
All cell lines were published before.

SF-268 = assay: NCI-60 cytotoxicity screen
K-562 = assay: NCI-60 cytotoxicity screen; conditions: Homo sapiens, K562, Fig 7, read-out: mean log10 of the GI50 values (converted)
ACHN = assay: JFCR-39 cytotoxicity screen
NCI-H226 = assay: JFCR-39 cytotoxicity screen
MKN28 = assay: JFCR-39 cytotoxicity screen
SW-620 = assay: NCI-60 cytotoxicity screen
IGROV1 = assay: NCI-60 cytotoxicity screen
HT-29 = assay: JFCR-39 cytotoxicity screen
HL-60(TB) = assay: NCI-60 cytotoxicity screen
HCT-116 = assay: JFCR-39 cytotoxicity screen
U251 = assay: NCI-60 cytotoxicity screen
HT29 = assay: NCI-60 cytotoxicity screen
DMS273 = assay: JFCR-39 cytotoxicity screen
HCT-15 = assay: NCI-60 cytotoxicity screen
SF-295 = assay: NCI-60 cytotoxicity screen
MALME-3M = assay: NCI-60 cytotoxicity screen
OVCAR-5 = assay: NCI-60 cytotoxicity screen
UACC-62 = assay: NCI-60 cytotoxicity screen
PC-3 = assay: NCI-60 cytotoxicity screen
SNB-19 = assay: NCI-60 cytotoxicity screen
786-0 = assay: NCI-60 cytotoxicity screen
[2] = Homo sapiens, read-out: LC50 (the source's name)
[3] = Homo sapiens, Fig 7, read-out: mean log10 of the GI50 values (converted)
[4] = Homo sapiens, five-dose, read-out: GI50
[5] = Homo sapiens, five-dose, read-out: LC50 (the source's name)

## O=C1c2ccccc2C(=O)c2c1cc(Cl)c1nsnc21 [NSC757963]
MDA-MB-231
  TGI: 2.9 µM
MDA-MB-231; Homo sapiens
  GI50: 1.3 µM
MDA-MB-231; [2]
  CC50: 6.4 µM
[1]
  selectivity ratios of the NCI subpanels other than leukemia: less than 3
[1]; Fig 7, read-out: MG-MID of mean log10 GI50 (converted)
  GI50: 4.47 µM
[1]; NCI Breast Cancer, read-out: Mean GI50 of subpanel
  GI50: 5.11 µM
[1]; NCI CNS Cancer, read-out: Mean GI50 of subpanel
  GI50: 7.71 µM
[1]; NCI Colon Cancer, read-out: Mean GI50 of subpanel
  GI50: 11.4 µM
[1]; NCI Leukemia, read-out: Mean GI50 of subpanel
  GI50: 1.4 µM
[1]; NCI Melanoma, read-out: Mean GI50 of subpanel
  GI50: 8.44 µM
[1]; NCI Non-Small Cell Lung Cancer, read-out: Mean GI50 of subpanel
  GI50: 20.7 µM
[1]; NCI Ovarian Cancer, read-out: Mean GI50 of subpanel
  GI50: 6.77 µM
[1]; NCI Prostate Cancer, read-out: Mean GI50 of subpanel
  GI50: 8.53 µM
[1]; NCI Renal Cancer, read-out: Mean GI50 of subpanel
  GI50: 18.5 µM
[1]; all NCI subpanels, read-out: mean GI50 values of the NCI 60 subpanels, range
  GI50: 1.4 to 20.7 µM
[1]; equivalent to MID, read-out: Mean GI50 of all NCI-60 cell line panels
  GI50: 10.9 µM
[1]; five-dose, read-out: NCI-60 GI50 values, range over cell lines
  GI50: 0.33 to 72.8 µM
[1]; NCI Breast Cancer
  Selectivity ratio: 2.14
[1]; NCI CNS Cancer
  Selectivity ratio: 1.41
[1]; NCI Colon Cancer
  Selectivity ratio: 0.96
[1]; NCI Leukemia
  Selectivity ratio: 7.79
[1]; NCI Melanoma
  Selectivity ratio: 1.29
[1]; NCI Non-Small Cell Lung Cancer
  Selectivity ratio: 0.53
[1]; NCI Ovarian Cancer
  Selectivity ratio: 1.61
[1]; NCI Prostate Cancer
  Selectivity ratio: 1.28
[1]; NCI Renal Cancer
  Selectivity ratio: 0.59
SF-268; [3]
  GI50: 1.95 µM
SF-268; [4]
  GI50: 2.07 µM
SF-268; [5]
  CC50: 13.9 µM
SF-268; five-dose
  TGI: 4.83 µM
K-562
  GI50: 0.759 µM
ACHN
  TGI: 3.4 µM
ACHN; Homo sapiens
  GI50: 1.8 µM
ACHN; [2]
  CC50: 6.5 µM
NCI-H226
  TGI: 17.0 µM
NCI-H226; Homo sapiens
  GI50: 4.2 µM
NCI-H226; [2]
  CC50: 51 µM
MKN28
  TGI: 4.4 µM
MKN28; Homo sapiens, MKN-28
  GI50: 2.2 µM
MKN28; Homo sapiens, MKN-28, read-out: LC50 (the source's name)
  CC50: 8.6 µM
SW-620; [3]
  GI50: 2.51 µM
SW-620; [4]
  GI50: 2.87 µM
SW-620; [5]
  CC50: 58.7 µM
SW-620; five-dose
  TGI: 10.4 µM
IGROV1; Homo sapiens, IGROV-1, Fig 7, read-out: mean log10 of the GI50 values (converted)
  GI50: 2.51 µM
IGROV1; Homo sapiens, IGROV-1, five-dose, read-out: GI50
  GI50: 3.3 µM
IGROV1; Homo sapiens, IGROV-1, five-dose, read-out: LC50 (the source's name)
  CC50: 45.7 µM
IGROV1; five-dose
  TGI: 15.6 µM
HT-29
  TGI: 45.0 µM
HT-29; Homo sapiens
  GI50: 21 µM
HT-29; [2]
  CC50: 98 µM
HL-60(TB); [3]
  GI50: 1.05 µM
HL-60(TB); [4]
  GI50: 0.42 µM
HL-60(TB); [5]
  CC50: > 100 µM
HL-60(TB); five-dose
  TGI: 2.22 µM
HCT-116
  TGI: 4.0 µM
HCT-116; Homo sapiens
  GI50: 1.9 µM
HCT-116; [2]
  CC50: 8.3 µM
U251; Homo sapiens, U-251, Fig 7, read-out: mean log10 of the GI50 values (converted)
  GI50: 2.34 µM
U251; Homo sapiens, U-251, five-dose, read-out: GI50
  GI50: 3.29 µM
U251; Homo sapiens, U-251, five-dose, read-out: LC50 (the source's name)
  CC50: 32.7 µM
U251; five-dose
  TGI: 10.4 µM
HT29; Homo sapiens, HT-29, Fig 7, read-out: mean log10 of the GI50 values (converted)
  GI50: 19.5 µM
HT29; Homo sapiens, HT-29, five-dose, read-out: GI50
  GI50: 19.2 µM
HT29; Homo sapiens, HT-29, five-dose, read-out: LC50 (the source's name)
  CC50: 98.2 µM
HT29; five-dose
  TGI: 43.4 µM
DMS273
  TGI: 4.1 µM
DMS273; Homo sapiens, DMS-273
  GI50: 2.1 µM
DMS273; Homo sapiens, DMS-273, read-out: LC50 (the source's name)
  CC50: 8.1 µM
HCT-15; [3]
  GI50: 6.61 µM
HCT-15; [4]
  GI50: 10.2 µM
HCT-15; [5]
  CC50: 55.9 µM
HCT-15; five-dose
  TGI: 23.8 µM
SF-295; [3]
  GI50: 17.4 µM
SF-295; [4]
  GI50: 16.6 µM
SF-295; [5]
  CC50: 62.9 µM
SF-295; five-dose
  TGI: 32.3 µM
MALME-3M; [3]
  GI50: 12.6 µM
MALME-3M; [4]
  GI50: 15.9 µM
MALME-3M; [5]
  CC50: 59.1 µM
MALME-3M; five-dose
  TGI: 30.7 µM
OVCAR-5; [3]
  GI50: 17.4 µM
OVCAR-5; [4]
  GI50: 17.6 µM
OVCAR-5; [5]
  CC50: 56.8 µM
OVCAR-5; five-dose
  TGI: 31.6 µM
UACC-62; [3]
  GI50: 3.47 µM
UACC-62; [4]
  GI50: 4.43 µM
UACC-62; [5]
  CC50: 41.8 µM
UACC-62; five-dose
  TGI: 17.0 µM
PC-3; [3]
  GI50: 2.57 µM
PC-3; [4]
  GI50: 2.85 µM
PC-3; [5]
  CC50: > 100 µM
PC-3; five-dose
  TGI: 30.2 µM
SNB-19; [3]
  GI50: 9.55 µM
SNB-19; [4]
  GI50: 13.9 µM
SNB-19; [5]
  CC50: 58.9 µM
SNB-19; five-dose
  TGI: 28.6 µM
786-0; 786–0, five-dose
  TGI: 31.8 µM
786-0; Homo sapiens, 786-0, Fig 7, read-out: mean log10 of the GI50 values (converted)
  GI50: 6.61 µM
786-0; Homo sapiens, 786–0, five-dose, read-out: GI50
  GI50: 17.2 µM
786-0; Homo sapiens, 786–0, five-dose, read-out: LC50 (the source's name)
  CC50: 58.8 µM
